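Assay format: 96-well plates, 48-hour exposure. GI50 = concentration required for 50% inhibition of growth.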 The source made the active and inactive calls. No stated cut-off is given here; in the data, active = GI50 up to about 1.1 µM and inactive = higher.
Columns and labels:
Assay in all cases: growth of human tumour cells (NCI), 48 h
[1] = test system: 786-0
[2] = test system: OVCAR-8
[3] = test system: SF-268
[4] = test system: U-251
[5] = test system: Hs-578T
[6] = test system: IGROV-1
[7] = test system: ACHN
[8] = test system: CCRF-CEM
[9] = test system: SR
[10] = test system: MOLT-4
[11] = test system: A549
[12] = test system: SK-MEL-5
[13] = test system: OVCAR-3
[14] = test system: CAKI-1
[15] = test system: HOP-62
[16] = test system: DU-145
[17] = test system: SNB-19
[18] = test system: HT-29
[19] = test system: Malme-3M
[20] = test system: SNB-75
[21] = test system: SK-MEL-2
[22] = test system: K562
[23] = test system: OVCAR-5
[24] = test system: SN12C
[25] = test system: M14
[26] = test system: A498
[27] = test system: SW-620
[28] = test system: NCI/ADR-RES
[29] = test system: T47D
[30] = test system: BT-549
[31] = test system: NCI-H226
[32] = test system: KM12
[33] = test system: MDA-MB-231
[34] = test system: NCI-H460
[35] = test system: LOX IMVI
[36] = test system: HCT-116
[37] = test system: EKVX
[38] = test system: TK-10
[39] = test system: UO-31
[40] = test system: PC-3
[41] = test system: UACC-62
[42] = test system: OVCAR-4
[43] = test system: HOP-92
[44] = test system: SF-295
[45] = test system: SK-MEL-28
[46] = test system: RXF 393
[47] = test system: NCI-H522
[48] = test system: MDA-MB-435
[49] = test system: HCT-15
[50] = test system: NCI-H23
[51] = test system: UACC-257
[52] = test system: RPMI-8226
[53] = test system: MDA-N
[54] = test system: HL-60
[55] = test system: COLO 205
[56] = test system: SK-OV-3

CC(C)C1=CC23CCC4C(C)(C(=O)O)CCCC4(C)C2CC1C(C(=O)O)C3C(=O)O (configuration not stated)
GI50 [1]: > 100 µM (inactive) | GI50 [2]: > 100 µM (inactive) | GI50 [3]: > 100 µM (inactive) | GI50 [4]: > 100 µM (inactive) | GI50 [5]: > 100 µM (inactive) | GI50 [6]: > 100 µM (inactive) | GI50 [7]: > 100 µM (inactive) | GI50 [8]: > 100 µM (inactive) | GI50 [9]: > 100 µM (inactive) | GI50 [10]: > 100 µM (inactive) | GI50 [11]: > 100 µM (inactive) | GI50 [12]: > 100 µM (inactive) | GI50 [13]: > 100 µM (inactive) | GI50 [14]: > 100 µM (inactive) | GI50 [15]: > 100 µM (inactive) | GI50 [16]: > 100 µM (inactive) | GI50 [17]: > 100 µM (inactive) | GI50 [18]: > 100 µM (inactive) | GI50 [19]: > 100 µM (inactive) | GI50 [20]: > 100 µM (inactive) | GI50 [21]: > 100 µM (inactive) | GI50 [22]: > 100 µM (inactive) | GI50 [23]: > 100 µM (inactive) | GI50 [24]: > 100 µM (inactive) | GI50 [25]: > 100 µM (inactive) | GI50 [26]: > 100 µM (inactive) | GI50 [27]: > 100 µM (inactive) | GI50 [28]: > 100 µM (inactive) | GI50 [29]: > 100 µM (inactive) | GI50 [30]: > 100 µM (inactive) | GI50 [31]: > 100 µM (inactive) | GI50 [32]: > 100 µM (inactive) | GI50 [33]: > 100 µM (inactive) | GI50 [34]: > 100 µM (inactive) | GI50 [35]: > 100 µM (inactive) | GI50 [36]: > 100 µM (inactive) | GI50 [37]: > 100 µM (inactive) | GI50 [38]: > 100 µM (inactive) | GI50 [39]: > 100 µM (inactive) | GI50 [40]: > 100 µM (inactive) | GI50 [41]: > 100 µM (inactive) | GI50 [42]: > 100 µM (inactive) | GI50 [43]: > 100 µM (inactive) | GI50 [44]: > 100 µM (inactive) | GI50 [45]: > 100 µM (inactive) | GI50 [46]: > 100 µM (inactive) | GI50 [47]: > 100 µM (inactive) | GI50 [48]: > 100 µM (inactive) | GI50 [49]: > 100 µM | GI50 [50]: > 100 µM (inactive)

CC1CC(N)=Nc2ccccc2N1Cc1ccccc1 (configuration not stated)
GI50 [1]: 29.4 µM (inactive) | GI50 [2]: 14.6 µM (inactive) | GI50 [3]: 13.6 µM (inactive) | GI50 [4]: 15.2 µM (inactive) | GI50 [5]: 11.1 µM (inactive) | GI50 [6]: 7.6 µM (inactive) | GI50 [51]: 12.9 µM (inactive) | GI50 [7]: 15.2 µM (inactive) | GI50 [8]: 12.4 µM (inactive) | GI50 [52]: 5 µM (inactive) | GI50 [53]: 18 µM (inactive) | GI50 [10]: 3.49 µM (inactive) | GI50 [11]: 17.4 µM (inactive) | GI50 [12]: 14.7 µM (inactive) | GI50 [13]: 12.4 µM (inactive) | GI50 [14]: 12.2 µM (inactive) | GI50 [15]: 13 µM (inactive) | GI50 [16]: 16.6 µM (inactive) | GI50 [17]: 15.9 µM (inactive) | GI50 [18]: 14.4 µM (inactive) | GI50 [19]: 2.22 µM (inactive) | GI50 [20]: 6.89 µM (inactive) | GI50 [21]: 14.3 µM (inactive) | GI50 [22]: 4.98 µM (inactive) | GI50 [23]: 31.8 µM (inactive) | GI50 [24]: 16.6 µM (inactive) | GI50 [25]: 15.6 µM (inactive) | GI50 [26]: 11.2 µM (inactive) | GI50 [27]: 12.6 µM (inactive) | GI50 [54]: 3.96 µM (inactive) | GI50 [28]: 15.1 µM (inactive) | GI50 [30]: 13.3 µM (inactive) | GI50 [31]: 15.7 µM (inactive) | GI50 [32]: 15 µM (inactive) | GI50 [33]: 14.4 µM (inactive) | GI50 [34]: 13.9 µM (inactive) | GI50 [36]: 29.3 µM (inactive) | GI50 [37]: 22.1 µM (inactive) | GI50 [38]: 15 µM (inactive) | GI50 [39]: 21.9 µM (inactive) | GI50 [40]: 14.2 µM (inactive) | GI50 [55]: 14.9 µM (inactive) | GI50 [41]: 14.2 µM (inactive) | GI50 [42]: 16.5 µM (inactive) | GI50 [44]: 14.5 µM (inactive) | GI50 [56]: 13.2 µM (inactive) | GI50 [45]: 11.6 µM (inactive) | GI50 [46]: 12 µM (inactive) | GI50 [47]: 12.7 µM (inactive) | GI50 [48]: 13.9 µM (inactive) | GI50 [49]: 15.8 µM | GI50 [50]: 16.3 µM (inactive)

— ChEMBL document CHEMBL1201862, “PubChem BioAssay data set” (2004)
